Here are results for two molecules from patent US20230348487A1, “2-AMINOPYRIMIDINE COMPOUND AND PHARMACEUTICAL COMPOSITION THEREOF AND APPLICATION THEREOF” (GUANGZHOU SALUSTIER BIOSCIENCES CO., LTD., priority 2021, published 2023).

pIC50: −log10 of the molar value.

Data set [1] in a line: Rat liver microsomes stability test. It counts as in vitro ADME. Conditions: for Remaining percentage: rat liver microsomes, average value. How it is done:
Firstly, preheated 0.1 M potassium phosphate buffer with 5 mM MgCl2 (i.e. K/Mg buffer) at pH 7.4±0.1. Prepared the spiked solution for the tested compound and reference compound (500 μM spiked solution: added 5 μL of 10 mM stock solution into 95 μL of acetonitrile; 1.5 μM microsomal spiked solution (0.75 mg/mL): added 1.5 μL of 500 μM spiked solution and 18.75 μL of 20 mg/mL liver microsomes into 479.75 μL of K/Mg buffer). Then NADPH was dissolved in buffer K to prepare a 6 mM, 5 mg/mL NADPH stock solution. At different time points (0-, 5-, 15-, 30-, 45 minutes), 30 μL of 1.5 μM spiked solution containing 0.75 mg/mL of microsome solution was distributed onto the designated detection plate. At 0 min, 150 μL of acetonitrile containing internal standard (IS) was added to the 0 min plate well, followed by 15 μL of NADPH stock solution (6 mM). Then, all plates were pre-incubated at 37° C. for 5 minutes, added 15 μL of NADPH stock solution (6 mM), the reaction was initiated and timed. At 5 minutes, 15 minutes, 30 minutes, and 45 minutes, added 150 μL of acetonitrile solution containing IS to the corresponding wells to stop the reaction. After quenching, the plate was shaken for 10 minutes (600 rpm/min), followed by centrifugation at 6000 rpm/min for 15 minutes. 80 μL of supernatant of each well were transferred into a 96-well sample plate containing 140 μL of ultrapure water to perform LC/MS analysis. The analysis of biological samples and all samples were completed by the analysis laboratory of Medicipia Pharmaceutical Technology (Shanghai) Co., Ltd.

Data set [2] has as its system human chronic myeloid leukemia cell line K562. Briefly: CCK-8 in vitro proliferation inhibition. Conditions: 72 hours, read-out: Inhibitory activity (IC50) on cell proliferation, K562. Type of data set: cell-based.
The subject of data set [3] is human T lymphocyte leukemia cell line HuT78. Briefly: CCK-8 in vitro proliferation inhibition. It counts as cell-based. Conditions: 72 hours, read-out: Inhibitory activity (IC50) on cell proliferation, HUT78.
Data set [4] has as its system human acute myeloid leukemia cell line U937. Briefly: CCK-8 in vitro proliferation inhibition. Type of data set: cell-based. Conditions: 72 hours, read-out: Inhibitory activity (IC50) on cell proliferation, U937.
Data set [5] concerns human T lymphoblastic lymphoma cell line Jurkat. Description: CCK-8 in vitro proliferation inhibition. Type of data set: cell-based. The following applies: 72 hours, read-out: Inhibitory activity (IC50) on cell proliferation, JURKAT.
The subject of data set [6] is other subtypes (JAK family). The following applies: 1 mM ATP concentration; read-out: IC50 of the kinase, other subtypes; cited from earlier work.

`O=C(c1ccc(F)cc1)C1CCN(CCn2c(=O)[nH]c3ccccc3c2=O)CC1` [ketanserin, reference compound]: the Remaining percentage in data set [1] (0 min) was found to be 100.00%; in data set [1] (5 min), 75.87%; in data set [1] (15 min), 42.60%; in data set [1] (30 min), 29.98%; in data set [1] (45 min), 17.88%. In data set [1] (rat, liver microsomes, pH 7.4, rat liver microsomes, read-out: Clint), the CLint scaled at 1 µM came to 133 mL/min/kg. For the same molecule, the half-life at 1 µM in data set [1] (rat, liver microsomes, pH 7.4, rat liver microsomes, read-out: T1/2) was 18.7 min.

In the case of `C=CC(=O)N1C[C@H](Nc2ncnc3[nH]ccc23)CC[C@@H]1C` [PF-06651600, reference compound], the pIC50 was less than 4.52 in data set [2]; less than 4.52 in data set [3]; 7.71 in data set [4]; less than 4.52 in data set [5]; less than 5.00 in data set [6].
